Laboratory results: patent publication US11306098B2, “Substituted pyrrolo[1,2-a]pyrazines and pyrrolo[1,2-a][1,4]diazepines as TREX1 inhibitors” (VENENUM BIODESIGN, LLC, priority 2019, dated 2022)
Structures can show the parent of a compound that is named as a salt. Where two headings read alike, the source gives them in different places.

Tests used:
murine TREX1 = murine TREX1 (Mus musculus (Mouse), UniProt Q91XB0); assay: TREX1 Exonuclease Assay (murine enzyme); format: biochemical; conditions: murine TREX1 1 nM, FAM/BHQ1-labeled DNA oligonucleotide
Sequence of murine TREX1 (Q91XB0 1-242): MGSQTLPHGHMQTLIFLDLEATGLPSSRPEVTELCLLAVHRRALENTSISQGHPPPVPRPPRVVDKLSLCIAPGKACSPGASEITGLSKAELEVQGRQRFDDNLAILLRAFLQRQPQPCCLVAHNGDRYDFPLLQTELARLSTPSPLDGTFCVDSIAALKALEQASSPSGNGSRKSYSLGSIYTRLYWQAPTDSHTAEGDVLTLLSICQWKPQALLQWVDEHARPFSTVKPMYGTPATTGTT
Experimental: (§1) The TREX1 Exonuclease assay is an exemplary in vitro assay for measuring the activity of the TREX1 inhibitors of the present invention. In this assay, TREX1 exonuclease activity was evaluated by measuring the increase in fluorescence resulting from TREX1-catalyzed removal of a quencher from the 3′ end of a FAM-labeled DNA oligonucleotide (5′FAM-CCA CGA GAG CGT-BHQ1-3′). The assay was conducted using Wild Type (WT) human or murine TREX1 enzyme constructs corresponding to amino acids 55-297 of UniProt ID Q9NSU2-1 (SEQ ID NO: 1), or amino acids 1-242 of UniProt ID Q91XB0-1 (SEQ ID NO: 2), respectively. See, e.g., Example A.
(§2) For human TREX1, the nucleotide sequence of the gene construct was codon optimized for expression in the bacterial host. The sequence was incorporated into the pMAL-c5e vector (NEB) downstream of a solubility-promoting MBP (maltose binding protein) fusion partner. The fusion protein product was expressed in E. coli strain BL21 (DE3) (Millipore) and purified in a series of chromatographic steps. Initial steps were conducted using a dextrin sepharose affinity column followed by a Q-sepharose ion exchange column (both GE Healthcare). After the second column the MBP partner was removed by incubation with enterokinase (NEB). Further purification was carried out with the second application of a Q-sepharose column followed by a Superdex 75 (GE Healthcare) size exclusion column. Finally, a heparin sepharose column (GE Healthcare) was applied to remove contaminating nucleotides. Similar methods were used in the preparation of the murine TREX1 enzyme and are described in Example B set forth below.
(§3) To evaluate the effect of compounds on TREX1 activity, test compounds were serially diluted (11-point, 3-fold) from 10 mM stock solutions and delivered to 384-well low-volume assay plates in 80 nL DMSO using an acoustic dispenser. Next, 4 μL of human TREX1 (0.5 nM), or murine TREX1 (1 nM), diluted in assay buffer (20 mM Tris pH 7.5, 5 mM MgCl2, 100 μg/mL BSA, 0.002% Triton X-100, 2 mM DTT), was added to the assay plate. After incubating for 30 minutes, 4 μL of labeled DNA oligonucleotide (500 nM) in assay buffer was added to initiate TREX1 exonuclease activity. The reaction was allowed to proceed for 45 minutes at room temperature prior to the addition of 4 μL of 150 mM EDTA to halt TREX1 activity. Assay plates were equilibrated for an additional 30 minutes and read on an EnVision Plate Reader (Perkin Elmer) to measure fluorescence emission at 535 nm following excitation at 485 nm. Fluorescence was plotted as a function of log molar compound concentration and fit to four-parameter dose-response equation to determine compound IC50.

cleaved human TREX1 = cleaved human TREX1 (Homo sapiens (Human), UniProt Q9NSU2); assay: TREX1 Thermal Shift Binding Assay (human); conditions: 100 μM compound, 5 μM TREX1
Sequence of cleaved human TREX1 (Q9NSU2 1-242): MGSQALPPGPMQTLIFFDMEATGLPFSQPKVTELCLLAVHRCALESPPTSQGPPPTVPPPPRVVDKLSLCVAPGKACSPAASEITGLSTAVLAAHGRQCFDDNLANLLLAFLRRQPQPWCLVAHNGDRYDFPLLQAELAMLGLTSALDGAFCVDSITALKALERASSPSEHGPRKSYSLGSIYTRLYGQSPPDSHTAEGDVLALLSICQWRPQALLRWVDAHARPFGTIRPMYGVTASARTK
Experimental: (§4) Example B is a protein thermal shift assay used to assess the binding of TREX1 inhibitors to TREX1 protein. In this assay, TREX1 protein unfolding with increasing temperature was measured in the presence and absence of TREX1 inhibitors by following the increase in fluorescence of a thiol-reactive dye (e.g BODIPY FL-cystine) as it reacts with exposed TREX1 cysteine residues. The assay was conducted using human (SEQ ID NO: 1), or murine (SEQ ID NO: 2) TREX1 protein constructs.
(§5) The thermal shift assays used recombinant protein corresponding to human (SEQ ID NO: 1) and murine (SEQ ID NO: 2) TREX1. The protein encoding plasmid contained a N-terminal MBP (maltose binding protein) tag followed by the TREX1 coding sequence within the pMAL-c5E vector. The plasmid was transfected into a BL21 (DE3) E. coli expression strain. Protein was purified from the bacterial lysate using an Amylose resin column. The MBP tag was cleaved from the purified protein using recombinant enterokinase (EMD Millipore #69066-3). The cleaved TREX1 protein was further purified on a Q-Sepharose column followed by a heparin column.
(§6) Binding of compounds to both human and murine TREX1 were measured by protein thermal shift assays. (Huynh K, Partch C L. Current Protocols in Protein Science: Analysis of protein stability and ligand interactions by thermal shift assay. Current protocols in protein science/editorial board, John E Coligan. [et al]. 2015; 79:28.9.1-28.9.14. doi:10.1002/0471140864.ps2809s79.). Thermal shift assays were conducted in sealed 96-well PCR plates containing 5 μM TREX1 protein, 100 μM compound, and 2 μM BODIPY FL-cystine (Sigma) in either 20 μL assay buffer (20 mM Tris, 7.5, 5 mM MgCl2, 0.002% Triton X-100) or 20 μL phosphate buffered saline (PBS). Using a RT-qPCR machine (Mx3005P, Stratagene) changes in fluorescence (excitation at 492 nm and emission at 516 nm) were monitored as temperature was increased from 25° C. to 96° C. at a rate of 1° C. every 2 minutes. Tm values were calculated from the first derivative plot of fluorescence intensity versus temperature. The results shown in Table 6 indicate the examples bind to human TREX1 and murine TREX1. ND indicates assay was not done.

human TREX1 = human TREX1 (Homo sapiens (Human), UniProt Q9NSU2); assay: TREX1 Exonuclease Assay (human enzyme); format: biochemical; conditions: human TREX1 0.5 nM, FAM/BHQ1-labeled DNA oligonucleotide
Sequence of human TREX1 (Q9NSU2 1-242): as above
Experimental: as §1, §2, §3

cleaved mouse TREX1 = cleaved mouse TREX1 (Mus musculus (Mouse), UniProt Q91XB0); assay: TREX1 Thermal Shift Binding Assay (mouse); conditions: 100 μM compound, 5 μM TREX1
Sequence of cleaved mouse TREX1 (Q91XB0 1-242): as the sequence (Q91XB0 1-242) above
Experimental: as §4, §5, §6

[1] = system: THP1 Dual cells (ISRE Lucia reporter, cGAS-STING pathway); assay: THP1 monocyte assay, ISRE Lucia luciferase reporter; format: cell-based, human; conditions: 48 hours, luciferase signal versus control wells without compound
From the text: Example C is a cell-based assay for TREX1 inhibitors using THP1 Dual™ cells (Invivogen), a human monocyte cell line that has stable integration of an Interferon Stimulated Response Element (ISRE) Lucia reporter gene. The Lucia gene encodes a secreted luciferase reporter protein, under the control of an ISG54 minimal promoter in conjunction with five IFN-stimulated response elements. Activation of the cGAS-STING pathway in THP1 Dual™ cells leads to enhanced luciferase secretion and increased luminescence.
A cell-based assay was established using THP1 Dual™ cells (Invivogen), a human monocyte cell line that has stable integration of an Interferon Stimulated Response Element (ISRE) Lucia reporter gene. The Lucia gene encodes a secreted luciferase reporter protein, under the control of an ISG54 minimal promoter in conjunction with five IFN-stimulated response elements. Activation of the cGAS-STING pathway in these cells leads to enhanced luciferase secretion. The assay was conducted in standard 384-well white tissue culture plates. Cells (25,000 in 25 μL RPMI 1640 containing 10% Heat-Inactivated FBS, 1× Glutagro, 10 mM HEPES, 1 mM sodium pyruvate, 1× Pen/Strep, 100 μg/mL Normocin, 100 μg/mL Zeocin, 10 μg/mL Blasticidin) were added to the plate followed by 25 μL of compound in the same media+0.2% DMSO. The assay was incubated for 48 hours at 37° C. in 5% CO2. An aliquot of 5 μl was removed to combine with 12.5 μL of the luciferase detection reagent, QUANTI-Luc™ Gold (Invivogen) in a white 384-well plate. The luminescent signal was then read using an EnVision plate reader (Perkin Elmer). The fold activation was calculated by dividing the signal in wells containing test compound by the signal in the control wells without compound (see Table 7).

[2] = system: interferon stimulated genes (ISGs) in THP1 Dual cells; assay: RT-qPCR assay of interferon stimulated gene expression; format: cell-based, human; conditions: substance alone, 24 hours, normalized to GAPDH, unstimulated control = 1
From the text: Example D is a cell based assay that measures the increase in the expression of interferon stimulated genes (ISG) by RT-qPCR that are induced by TREX1 inhibitors when THP1 Dual™ cells are transfected with double-stranded DNA. The double stranded DNA used to transfect cells was VACV-70 (Invivogen), a 70 base pair oligonucleotide containing viral DNA motifs (Unterholzner L. et al., 2010. IFI16 is an innate immune sensor for intracellular DNA. Nat Immunol. 11(11):997-1004). Activation of cGAS-STING pathway in THP1 Dual™ cells increases the expression of ISGs.
The RT-qPCR assay was used to assess the ability of TREX1 inhibitors to enhance the expression of interferon stimulated genes (ISGs) in cells transfected with double-stranded DNA. The double stranded DNA used to transfect cells was VACV-70 (Invivogen), a 70 base pair oligonucleotide containing viral DNA motifs (Unterholzner L. et al., 2010. IFI16 is an innate immune sensor for intracellular DNA. Nat Immunol. 11(11):997-1004). Human THP1 Dual™ cells (Invivogen), were treated with test compound in the presence or absence of 1,200 ng/mL VACV-70, or with VACV-70 alone, for 24 hours. Cells were harvested by centrifugation and washed with phosphate buffer saline. Total RNA was isolated using Qiagen RNeasy mini kit. Genomic DNA was degraded using Thermo Scientific DNase 1 kit. Total RNA was quantified using a Nanodrop spectrophotometer. Using equal amounts of RNA, cDNA was synthesized using Invitrogen Superstrand III First Strand synthesis kit. Target and reference gene expression levels were determined by RT-qPCR using TaqMan gene expression assays and a Stratagene Mx3005P QPCR system (all reagents were from TaqMan, Applied Biosystems). Data were analyzed by the Comparative CT method. GAPDH was used for normalization. Target genes that were analyzed included interferon stimulated genes (INF-β, CXCL10, IFIT1, IFIT2, IFIT3, IFI44, and IFI44L).

[3] = PBS, read-out: Thermal shift cleaved human TREX1, (ΔTm ° C.) PBS
[4] = assay buffer, read-out: Thermal shift cleaved human TREX1, (ΔTm ° C.) Assay buffer
[5] = PBS, read-out: Thermal shift cleaved mouse TREX1, (ΔTm ° C.) PBS
[6] = assay buffer, read-out: Thermal shift cleaved mouse TREX1, (ΔTm ° C.) Assay buffer

SMILES | IC50 (murine TREX1) | ΔTm at 100 µM (cleaved human TREX1; [3]) | ΔTm at 100 µM (cleaved human TREX1; [4]) | IC50 (human TREX1) | ΔTm at 100 µM (cleaved mouse TREX1; [5]) | ΔTm at 100 µM (cleaved mouse TREX1; [6]) | Fold activation @ 10 μM [1] | CXCL10 expression [2] | IFI44L expression [2] | IFI44 expression [2] | IFIT1 expression [2] | IFIT2 expression [2] | IFIT3 expression [2] | IFN-β expression [2]
N[C@@H]1C[C@H]2C(=O)N([C@H](CCC(=O)O)C(=O)NCc3ccc(C(F)(F)F)cc3)CCC(CCc3ccccc3)N2C1 (single isomer, unassigned) [Example 2B] | < 1000 nM | > 8 °C | > 8 °C | < 1000 nM | 4 to 8 °C | 4 to 8 °C | – | – | – | – | – | – | – | –
CC(C)C[C@H](C(=O)NCc1ccc(Cl)c(Cl)c1)N1CCC(CCc2ccccc2)N2C[C@H](N)C[C@H]2C1=O (stereo partly drawn) [Example 1, (2R)-2-((8R,9aS)-8-amino-1-oxo-5-phenethylhexahydro-1H-pyrrolo[1,2-a][1,4]diazepin-2(3H)-yl)-N-(3,4-dichlorobenzyl)-4-methylpentanamide.HCl] | – | > 8 °C | > 8 °C | – | 4 to 8 °C | 4 to 8 °C | – | – | – | – | – | – | – | –
N[C@@H]1C[C@H]2C(=O)N([C@H](CO)C(=O)NCc3ccc(Cl)c(Cl)c3)CCC(CCc3ccccc3)N2C1 (stereo partly drawn) [Example 3, (2R)-2-((8R,9aS)-8-amino-1-oxo-5-phenethylhexahydro-1H-pyrrolo[1,2-a][1,4]diazepin-2(3H)-yl)-N-(3,4-dichlorobenzyl)-3-hydroxypropanamide.HCl] | – | > 8 °C | > 8 °C | – | 4 to 8 °C | 4 to 8 °C | – | – | – | – | – | – | – | –
N[C@@H]1C[C@H]2C(=O)N([C@H](Cc3ccc(O)cc3)C(=O)NCc3ccc(Cl)c(Cl)c3)CCC(CCc3ccccc3)N2C1 (some centres unmarked) [Example 4] | < 1000 nM | > 8 °C | > 8 °C | < 1000 nM | 4 to 8 °C | 4 to 8 °C | – | – | – | – | – | – | – | –
N[C@@H]1C[C@H]2C(=O)N([C@H](CC(=O)O)C(=O)NCc3ccc(Cl)c(Cl)c3)CCC(CCc3ccccc3)N2C1 (some centres unmarked) [Example 15] | < 1000 nM | – | – | < 1000 nM | – | – | 2 | 1 | 20 | 20 | 10 | 32 | 20 | 5
NC(=O)CC[C@H](C(=O)NCc1ccc(Cl)c(Cl)c1)N1CCC(CCc2ccccc2)N2C[C@H](N)C[C@H]2C1=O (some centres unmarked) [Example 16] | < 1000 nM | – | – | < 1000 nM | – | – | 4 | 2 | 15 | 14 | 11 | 41 | 25 | 6
N[C@@H]1C[C@H]2C(=O)N([C@H](CCc3nnn[nH]3)C(=O)NCc3ccc(Cl)c(Cl)c3)CCC(CCc3ccccc3)N2C1 (some centres unmarked) [Example 36] | < 1000 nM | – | – | < 1000 nM | – | – | 7 | 2 | 16 | 20 | 8 | 26 | 16 | 3
